Like-named read-outs stand apart in the source and are kept apart here.
Legend:
[1] = Metabolites of cold authentic FP-CIT in normal rats (LC-MS); type: in vivo, Sprague–Dawley rats; conditions: FP-CIT 5 mg/kg i.v.; for presence in brain samples: 30 and 60 min
Description: Male Sprague–Dawley Rats (group III) were anesthetized with 2% isoflurane in oxygen, and cold authentic FP-CIT dissolved in 10% DMSO normal saline diluent was intravenously injected via the tail vein (5 mg/kg; 5 mg/mL). Rats were sacrificed at different time points (30 and 60 min after injection, n = 3 each), and the tissues of interest (i.e., blood, urine, brain, and liver) were harvested. One rat injected with 10% DMSO in normal saline was used as the negative control. Plasma obtained from the blood samples was centrifuged at 3000 rpm for 10 min at room temperature. Urine samples were collected from the urinary bladder using a 1 mL syringe at specific time points. After adding ice-cold acetonitrile at a volume of onefold (v/v) for each plasma and urine sample obtained, the samples were centrifuged at 12,000 rpm for 5 min at 4 °C and the supernatant was collected. The brain and liver tissues were separately homogenized in 1 mL of a 0.9% normal saline/acetonitrile (95:5 v/v) solution using a homogenizer. The obtained homogenate was deproteinized using 500 μL of acetonitrile and centrifuged (4 °C, 12,000 rpm, 10 min), followed by collecting the supernatant. The supernatants obtained by centrifuging the blood, brain, liver, and urine samples were filtered with 2 mL of acetonitrile using a 0.45 μm UHP syringe filter to remove residues. Compounds identified as FP-CIT metabolites in a previous study were modified to a cold-fluorine-authentic form and used as positive controls. The filtered samples were analyzed qualitatively and quantitatively based on the positive controls.
The ISQEM LC–MS system (Thermo Fisher, Waltham, MA, USA) equipped with OptimaPak C18 (5 μm, 4.6 × 250 mm) column was used. The HPLCf elution condition (A: 0.1% (v/v) trifluoroacetic acid, B: acetonitrile) was as follows: a gradient elution; 90% (A), 10% (B) (0 min) → 40% (A), 60% (B) (35 min); and a flow rate of 1 mL/min. The injection volume of each sample was 20 μL. Electrospray ionization mass was scanned in both the positive and negative modes. Mass range (amu) was 100–2000; dwell times, 0.1 s; source voltage, 3000 V (positive) and − 2000 V (negative); and vaporizer temperature, 550 °C; nitrogen was used as nebulizing gas. For analysis, the masses of [M + H]^+ of cold authentic FP-CIT administrated and metabolites were extracted from the obtained total ion chromatogram, and Gaussian distribution curve fitting was conducted.

[2] = cited from earlier work
dopamine transporter [3] = conditions: PET scanning; cited from earlier work
dopamine transporter [4] = test system: dopamine transporter; parameters: method as in PMID 30028339, PMID 23758882, PMID 15908232; conditions: cited from earlier work
[5] = parameters: method as in earlier work; conditions: cited from earlier work
serotonin transporter = conditions: cited from earlier work

COC(=O)C1C(c2ccc(I)cc2)CC2CCC1N2CCCF (stereo not drawn) [FP-CIT, N-(3-fluoropropyl)-2β-carboxymethoxy-3β-(4-iodophenyl) nortropane]
metabolite distribution in blood, brain, liver, urine EIC ([1]; 30 min after administration): mainly observed in all the EIC of metabolic pathways

O=C(O)C1C(c2ccc(I)cc2)CC2CCC1N2CCCF (centres unmarked) [FP-CIT-acid]
amount relative to other forms [2]: < 0.3% | blood–brain barrier penetration [2]: cannot penetrate the blood–brain barrier | presence in brain samples [1]: Neither FP-CIT-acid nor nor-β-CIT-acid was observed in the brain samples | metabolite distribution, urine ([1]; 30 min after administration): most distinctly observed in the urine samples

[11CH3]OC(=O)C1C(c2ccc(I)cc2)CC2CCC1N2CCCF (centres unmarked) [[^11C]FP-CIT]
time of transient equilibrium in time activity curves (specific binding to the striatum) (dopamine transporter [3]): 70 to 90 min

CN1[C@H]2CC[C@@H]1[C@@H](CN(CC[S-])CC[N-]CC[S-])[C@@H](c1ccc(Cl)cc1)C2.[O]=[99Tc+4] [[^99mTc]TRODAT-1]
correlation (R) with TH IHC (dopamine transporter [4]): 0.899

COC(=O)[C@H]1[C@@H](c2ccc([123I])cc2)C[C@@H]2CC[C@H]1N2CCCF [[^123I]FP-CIT]
injected dose excreted ([5]; till 6 h post-injection, male Wistar rats): approximately 10% | injected dose excreted ([5]; until 72 h, animals): more than 80% | correlation (R) with dopamine transporter IHC (dopamine transporter [4]): 0.88

COC(=O)[C@H]1C(c2ccc([123I])cc2)C[C@@H]2CC[C@H]1N2C (stereo partly drawn) [[^123I]β-CIT]
correlation (R) with TH IHC (dopamine transporter [4]): 0.911 | correlation (R) with dopamine transporter IHC (dopamine transporter [4]): 0.936

O=C(O)C1C2CCC(CC1c1ccc(I)cc1)N2 (stereo not drawn) [nor-β-CIT-acid]
blood–brain barrier penetration ([2]; low-lipophilic metabolite of [^123I]FP-CIT): difficulty penetrating the BBB | presence in brain samples [1]: Neither FP-CIT-acid nor nor-β-CIT-acid was observed in the brain samples | metabolite distribution ([1]; 60 min post-injection): appeared in the blood, urine, and liver samples

COC(=O)C1C2CCC(CC1c1ccc(I)cc1)N2 (stereo not drawn) [nor-β-CIT]
affinity for serotonin transporter relative to FP-CIT (serotonin transporter): higher affinity for serotonin transporter than FP-CIT | metabolite distribution in blood, brain, liver, urine EIC ([1]; 30 min after administration): mainly observed in all the EIC of metabolic pathways
